Key:
pERK in H358 cells = assay: pERK inhibition in H358 cells; type: cell-based, human; conditions: 4 hours treatment, read-out: Cellular pERK inhibition
Protocol: H358 cells (5500 cells) derived from a human lung cancer were plated in a 96 well plate in media (100 uL, RPMI with 10% FBS). After 24 hours, cells were treated for 4 hours with compound or DMSO. Cells were washed twice with room temperature TBS (200 uL) and fixed for 20 minutes with 4% paraformaldehyde diluted with TBS (150 uL). Cells were washed four times for five minutes with 0.1% TritonX/TBS (150 uL) to permeabilize the membrane. Cells were incubated with TBS blocking buffer (100 uL) at room temperature for 60 minutes. Primary antibody (Phospho-p44/42 MAPK (Erk1/2) (Thr202/Tyr204) (D13.14.4E) XP® Rabbit mAb #4370, Cell Signaling Technology; 1:200) was added, and the cells were incubated overnight at 4 C. The cells were washed four times for five minutes with 0.1% Tween 20/TBS (150 uL). Secondary antibody (IRDye® 800CW Goat-Anti-Rabbit IgG, Li-Cor Biosciences; 1:1000) and DRAQ5™ (Invitrogen; 1:2000) was added, and the cells were incubated for 1 hour at room temperature. The cells were washed four times for five minutes with 0.1% Tween 20/TBS (150 uL) and scanned using the LICOR (700 and 800 nm).

[1] = molecular target: T1, BRAF-GTP-KRAS-G12C complex (Homo sapiens, UniProt P01116+P62937, G12C); assay: KRAS-BRAF complex disruption through competition with CYPA-compound by TR-FRET; conditions: biochemical BRAF-KRAS G12C-GTP disruption assay EC50, with CYPA
T1 construct: 50 nM of His6-KRas G12C-GTP (1-169); 500 nM of tagless CypA (1-165)
Protocol: In this example, TR-FRET was used to measure the compound-facilitated disruption of a KRAS-BRAF complex. A mixture of tagless Cyclophilin A, His6-KRAS G12C-GMP-PNP, and GST-BRAF RAS binding domain was added to a 384-well assay plate containing compounds of the invention and incubated for 3 hours. A mixture of Anti-His Eu-W1024 and anti-GST allophycocyanin was then added and the reaction was incubated for an additional 1.5 hours. TR-FRET signal was read on an EnVision microplate reader (Perkin Elmer, Ex 320 nm, Em 665/615 nm). Compounds that facilitate disruption of a KRAS_BRAF complex were identified as those eliciting a decrease in the TR-FRET ratio relative to DMSO control wells. To determine the presenter-dependence of the compound-mediated KRAS-BRAF complex disruption, Cyclophilin A was left out of the initial incubation (see Table 5). To determine G12C specificity of the compound-mediated KRAS-BRAF complex disruption, wild-type KRAS was used instead of G12C KRAS (see Table 5).
Reagents and Instrument • Tagless CYPA; 519 μM in PBS buffer, pH 7.4 • GST BRAF; 110 μM in PBS buffer, pH 7.4 • His6-KRASG12C-GMP-PNP; 50 μM in PBS buffer, pH 7.4 • His6-KRASWT-GMP-PNP; 40 μM in PBS buffer, pH 7.4 • Anti-His Eu-W1024 (LANCE® Eu-W1024; Perkin Elmer) • Anti-GST allophycocyanin (Anti-GST IgG conjugated to SureLight®-Allophycocyanin; Perkin Elmer; Product Number AD0059G) • Test compounds, 10 mM in 100% DMSO • EnVision (Perkin Elmer) • Combi MultiDrop liquid dispenser with 8-channel small volume cassette • 384-well ProxiPlate (black)
Experimental Protocol • 1. Use Mosquito to dispense 100 nL/well of compounds (varying concentration in […]) into 384-well black ProxiPlate to make assay-ready-plate (ARP). • 2. Make assay buffer containing 25 mM Hepes pH 7.3, 100 mM NaCl, 5 mM MgCl2, 0.05% BSA, and 0.002% Tween-20. • 3. Make PRE-MIX A: delivers final concentrations of 50 nM of His6-KRas G12C-GTP (1-169) and 500 nM of tagless CypA (1-165) in assay buffer. • a. For presenter dependence experiments, omit addition of tagless CypA • b. For G12C/wt specificity experiments, substitute His6-KRas WT-GTP (1-169) for His6-KRas G12C-GTP (1-169) • 4. Use MultiDrop Combi to dispense PRE-MIX A into ARP, 7 μl/well. Incubate 3 hr at room temperature. • 5. Make PRE-MIX B: delivers final concentrations of 10 nM of anti-His Eu-W1024 and 50 nM of anti-GST APC. • 6. Use MultiDrop Combi to dispense PRE-MIX B into ARP, 3 μl/well. Shake briefly on Combi and incubate 1.5 hr at room temperature. • 7. Read on EnVision (Ex: 320 nm; Em1: 615 nm; Em2: 665 nm). • 8. Data is processed using Dotmatics. Curves are fit using a 4-parameter non-linear fit to determine the EC50 value for formation of the ternary complex.

cyclophilin A (CYPA) = cyclophilin A (CYPA) (Homo sapiens, UniProt P62937); assay: CYPA-compound binary complex formation by SPR; conditions: read-out: CYPA Binding Affinity
Protocol: In order to determine the affinity of compounds of the invention for cyclophilin A (CYPA), we employed surface plasmon resonance binding analysis using the following reagents, instruments and protocol as supplied by the instrument manufacturer.
Reagents and Instrument • 1. Instrument: Biacore S200 (GE Healthcare Life Sciences) • 2. Running buffer: 1×HBS-P+ (1×HBS supplemented with 0.05% Tween20), pH7.4, and 2% DMSO. • 3. Ligand: CypA-Avi • 4. Analyte: Serial dilution of WDB compounds from 50 μM to 0 μM, 2-fold dilution, 10 points (10 mM stock concentration). • 5. Sensor kit: Biotin CAPture Kit (BR28-9202-34, GE Healthcare Life Sciences) • 6. Regeneration buffer: 1 volume of 1 M NaOH and 3 volumes of 8 M guanidine hydrochloride (supplied with CAPture Kit, BR28-9202-34, GE Healthcare Life Sciences)
Experimental Procedure • 1. Capture of CAPreagent: 2 μl/min for 60 seconds. • 2. Immobilization of ligand CypA: Use Fc1 as the reference cell; immobilize CypA at 4 μg/ml using 5 μl/min flowrate on Fc2 (60s), Fc3 (80s) and Fc4 (80s), respectively. • 3. Binding of analytes: Inject WDB compound dilutions sequentially at 50 μl/min for association of 60 seconds. And then let it dissociates in buffer at 50 μl/min for 60 seconds. • 4. Regeneration: 2 injections of regeneration buffer at 30 μl/min for 60 seconds to regenerate the chip surface. • 5. Solvent correction: Run solvent correction at beginning and the end of the run. If run more than 6 compounds, add additional solvent correction every 6 compounds. • 6. Data fitting with built-in Biacore Evaluation Software: Steady-state fitting.

IC50 (pERK in H358 cells) [µM]	EC50 [1] [µM]	Kd (cyclophilin A (CYPA)) [µM]	SMILES
1 to 10	≤ 0.5	5 to 15	CC(C)[C@@H](C(=O)N[C@H]1Cc2cc(O)cc(c2)-c2ccc3c(-c4ccn(C)n4)cn(c3c2)CC(C)(C)COC(=O)[C@@H]2CCCN(N2)C1=O)N(C)C(=O)C1CN(C(=O)CCl)C1 [Compound 257]
> 10	≤ 0.5	> 15	C=CC(=O)N1CCN([C@H](C(=O)N[C@H]2Cc3cc(O)cc(c3)-c3ccc4c(Cl)nn(c4c3)CC(C)(C)COC(=O)[C@@H]3CCCN(N3)C2=O)C(C)C)C1=O [Compound 200]
> 10	0.5 to 5	–	C=CC(=O)N1CC(C(=O)N(C)[C@H](C(=O)N[C@H]2Cc3cc(O)cc(c3)-c3ccc4c(C5CCN(C)CC5)nn(c4c3)CC(C)(C)COC(=O)[C@@H]3CCCN(N3)C2=O)C(C)C)C1 [Compound 232, 1-acryloyl-N-((2S)-1-(((6^3S,4S)-2^5-hydroxy-10,10-dimethyl-1^3-(1-methylpiperidin-4-yl)-5,7-dioxo-6^1,6^2,6^3,6^4,6^5,6^6-hexahydro-1^1H-8-oxa-1(6,1)-indazola-6(1,3)-pyridazina-2(1,3)-benzenacycloundecaphane-4-yl)amino)-3-methyl-1-oxobutan-2-yl)-N-methylazetidine-3-carboxamide]
1 to 10	–	≤ 5	CC1COC(=O)[C@@H]2CCCN(N2)C(=O)[C@@H](NC(=O)[C@H](C(C)C)N(C)C(=O)C2CN(C(=O)CCl)C2)Cc2cc(O)cc(c2)-c2ccc3c(c2)c(cn3CC2COC2)C1 (single isomer, unassigned) [Compound 228]
1 to 10	> 5	–	C=CC(=O)N1CCC(C(=O)N(C)C(C(=O)NC2Cc3cc(O)cc(c3)-c3ccc4c(c3)c(cn4C(C)(C)C#N)CC(C)(C)COC(=O)C3CCCN(N3)C2=O)C2CCCCC2)C1 (centres unmarked) [Compound 396]
> 10	–	5 to 15	CC1COC(=O)[C@@H]2CCCN(N2)C(=O)[C@@H](NC(=O)[C@H](C(C)C)N(C)C(=O)C2CN(C(=O)CCl)C2)Cc2cc(O)cc(c2)-c2ccc3c(c2)c(cn3CC2COC2)C1 (single isomer, unassigned) [Compound 227]
> 10	≤ 0.5	–	C#Cc1nn2c3cc(ccc13)-c1cc(O)cc(c1)C[C@H](NC(=O)[C@H](C(C)C)N(C)C(=O)C1CN(C(=O)CCl)C1)C(=O)N1CCC[C@H](N1)C(=O)OCC(C)(C)C2 [Compound 233, 1-(2-chloroacetyl)-N-((2S)-1-(((6^3S,4S)-1^3-ethynyl-2^5-hydroxy-10,10-dimethyl-5,7-dioxo-6^1,6^2,6^3,6^4,6^5,6^6-hexahydro-1^1H-8-oxa-1(6,1)-indazola-6(1,3)-pyridazina-2(1,3)-benzenacycloundecaphane-4-yl)amino)-3-methyl-1-oxobutan-2-yl)-N-methylazetidine-3-carboxamide]
≤ 1	–	≤ 5	CC1COC(=O)C2CCCN(N2)C(=O)C(NC(=O)C(C(C)C)N(C)C(=O)C2CN(C(=O)CCl)C2)Cc2cc(O)cc(c2)-c2ccc3c(-c4ccccc4C#N)cn(c3c2)C1 [Compound 5, 1-(2-chloroacetyl)-N-((2S)-1-(((6^3S,4S,10S)-1^3-(2-cyanophenyl)-2^5-hydroxy-10-methyl-5,7-dioxo-6^1,6^2,6^3,6^4,6^5,6^6-hexahydro-1^1H-8-oxa-1(6,1)-indola-6(1,3)-pyridazina-2(1,3)-benzenacycloundecaphane-4-yl)amino)-3-methyl-1-oxobutan-2-yl)-N-methylazetidine-3-carboxamide]

The remaining lines, values behind:

SMILES	IC50 (pERK in H358 cells) [µM]	EC50 [1] [µM]	Kd (cyclophilin A (CYPA)) [µM]
CC(C)[C@@H](C(=O)N[C@H]1Cc2cc(O)cc(c2)-c2ccc3c(Cc4cccnc4)cn(c3c2)C[C@H](C)COC(=O)[C@@H]2CCCN(N2)C1=O)N(C)C(=O)C1CN(C(=O)CCl)C1 [Compound 70]	> 10	≤ 0.5	–
C=CC(=O)N1CCC(C(=O)N(C)C(C(=O)NC2Cc3cc(O)cc(c3)-c3ccc4c(c3)c(c(C#N)n4CC)CC(C)(C)COC(=O)C3CCCN(N3)C2=O)C2CCCC2)C1 (centres unmarked) [Compound 397]	≤ 1	≤ 0.5	≤ 5
CC(C)[C@@H](C(=O)N[C@H]1Cc2cc(O)cc(c2)-c2ccc3c(-c4cccnc4)cn(c3c2)C[C@H](C)COC(=O)[C@@H]2CCCN(N2)C1=O)N(C)C(=O)C1CN(C(=O)CCl)C1 [Compound 51]	1 to 10	≤ 0.5	–
C=CC(=O)N1CCN([C@H](C(=O)N[C@H]2Cc3cc(O)cc(c3)-c3ccc4c(C5CCOCC5)cn(c4c3)CCCOC(=O)[C@@H]3CCCN(N3)C2=O)C(C)C)C1=O [Compound 229, (2S)-2-(3-acryloyl-2-oxoimidazolidin-1-yl)-N-((6^3S,4S)-2^5-hydroxy-5,7-dioxo-1^3-(tetrahydro-2H-pyran-4-yl)-6^1,6^2,6^3,6^4,6^5,6^6-hexahydro-1^1H-8-oxa-1(6,1)-indola-6(1,3)-pyridazina-2(1,3)-benzenacycloundecaphane-4-yl)-3-methylbutanamide]	> 10	–	≤ 5
CC(C)[C@@H](C(=O)N[C@H]1Cc2cc(N)cc(c2)-c2ccc3c(C#N)cn(c3c2)CC(C)(C)COC(=O)[C@@H]2CCCN(N2)C1=O)N(C)C(=O)C1CN(C(=O)CCl)C1 [Compound 230, N-((2S)-1-(((6^3S,4S)-2^5-amino-1^3-cyano-10,10-dimethyl-5,7-dioxo-6^1,6^2,6^3,6^4,6^5,6^6-hexahydro-1^1H-8-oxa-1(6,1)-indola-6(1,3)-pyridazina-2(1,3)-benzenacycloundecaphane-4-yl)amino)-3-methyl-1-oxobutan-2-yl)-1-(2-chloroacetyl)-N-methylazetidine-3-carboxamide]	> 10	0.5 to 5	–

Reference: patent US20240139185A1, “COMPOUNDS THAT PARTICIPATE IN COOPERATIVE BINDING AND USES THEREOF” (Revolution Medicines, Inc., priority 2018, published 2024)
